{
  "source": "patent US7510851B2",
  "about": "“Compositions and methods for diagnosing and treating diabetes, insulin resistance and dyslipidemia” (Metabolex, Inc., priority 2001, dated 2009)",
  "key": {"[1]": {"system": "aP2 reporter gene (endogenous PPAR)", "test": "cell-based natural PPAR-responsive promoter (aP2) reporter gene assay", "design": "species or system mouse", "method": "Prostaglandin D2 and 9α,11β-PGF2α were assayed in cell-based assays (ex vivo) designed to detect activation of a natural PPAR responsive promoter. The assay uses the promoter region of the mouse aP2 gene, which contains binding sites for PPARs (both PPAR alpha and gamma) coupled to a reporter gene. Binding of a ligand to endogenous PPAR results in activation of the aP2 reporter gene."}, "RGS2": {"system": "RGS2", "test": "Taqman PCR expression in treated 3T3-L1 adipocytes", "assay_type": "cell-based, mouse", "conditions": "for RGS2 fold change: Taqman, 3T3-L1 adipocytes treated with rosiglitazone, PGD2 or 9α,11β-PGF2α; for down regulation of RGS2, fold: Taqman PCR with SYBR green detection, verification of chip data", "from_the_text": "(§1) Primers were designed against murine RGS2 and murine PDHK4 and the gene expression changes observed with the standard mouse chips were verified using Taqman PCR with SYBR green detection. Treatment of cells with pioglitazone, rosiglitazone or troglitazone caused a down regulation of RGS2 by 0.47 fold, 0.41 fold and 0.55 fold, respectively.\n(§2) Taqman primers were used to analyze the expression of RGS2 and PDHK4 in mouse 3T3-L1 adipocytes treated with rosiglitazone, PGD2 and 9α,11β-PGF2α. […] In contrast, the fold change with 9α,11β-PGF2α was 0.75. […] In contrast, the fold change with 9α,11β-PGF2α was 0.77."}, "PDHK4": {"system": "PDHK4", "test": "Taqman PCR expression in treated 3T3-L1 adipocytes", "assay_type": "cell-based, mouse", "conditions": "for PDHK4 fold change: Taqman, 3T3-L1 adipocytes treated with rosiglitazone, PGD2 or 9α,11β-PGF2α; for up regulation of PDHK4, fold: Taqman PCR with SYBR green detection, verification of chip data", "from_the_text": "as §1, §2"}, "mouse 3T3-L1 adipocytes": {"system": "mouse 3T3-L1 adipocytes", "test": "glucose transport in 3T3-L1 adipocytes", "assay_type": "cell-based", "conditions": "treatment for 40 hours"}, "PPAR alpha": {"target": "T1, PPAR alpha (Homo sapiens, UniProt Q07869)", "T1 construct": "expressed in transfected cells", "T1 sequence (Q07869 239-466 limits assumed)": "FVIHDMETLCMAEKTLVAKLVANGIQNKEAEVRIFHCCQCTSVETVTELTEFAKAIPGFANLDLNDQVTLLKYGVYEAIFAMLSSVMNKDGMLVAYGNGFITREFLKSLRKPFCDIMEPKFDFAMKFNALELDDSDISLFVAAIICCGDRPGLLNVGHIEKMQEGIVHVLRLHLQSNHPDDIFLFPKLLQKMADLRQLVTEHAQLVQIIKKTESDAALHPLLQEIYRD", "test": "cell-based PPAR ligand activity reporter assay (PPAR ligand-binding domain coupled to heterologous DNA binding domain)", "conditions": "reporter gene expression", "method": "(§3) Prostaglandin D2 and 9α,11β-PGF2α were assayed in cell-based assays (ex vivo) designed to detect PPAR ligand activity. The assay uses a recombinant protein consisting of a PPAR ligand-binding domain coupled to a heterologous DNA binding domain. See, e.g., Reginato, et. al., J. Biol. Chem. 273:32679 (1998). Binding of a ligand to the PPAR binding domain drives expression of a reporter gene."}, "PPAR gamma": {"target": "T2, PPAR gamma (Homo sapiens, UniProt P37231)", "T2 construct": "expressed in transfected cells", "T2 sequence (P37231 238-503 limits assumed)": "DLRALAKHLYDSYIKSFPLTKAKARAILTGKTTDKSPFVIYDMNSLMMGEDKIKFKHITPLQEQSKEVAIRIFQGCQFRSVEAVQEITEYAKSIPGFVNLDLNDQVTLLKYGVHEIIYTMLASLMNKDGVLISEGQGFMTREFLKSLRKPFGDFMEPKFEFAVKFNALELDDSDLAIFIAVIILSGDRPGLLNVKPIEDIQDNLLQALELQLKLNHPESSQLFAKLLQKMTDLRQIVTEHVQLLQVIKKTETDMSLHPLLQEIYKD", "test": "cell-based PPAR ligand activity reporter assay (PPAR ligand-binding domain coupled to heterologous DNA binding domain)", "conditions": "reporter gene expression", "method": "as §3"}, "3T3-L1 adipocytes": {"system": "3T3-L1 adipocytes", "test": "insulin-stimulated glucose transport (3H-2-deoxyglucose) in adenovirus-infected 3T3-L1 adipocytes", "assay_type": "cell-based, mouse", "conditions": "cells infected with control virus, 4 μM PGD2 for 20 hours", "method": "3T3-L1 adipocytes were infected with either control adenovirus or recombinant adenovirus encoding the four human AKR1C isoforms and incubated 20 hours to allow for protein expression. Cells were then treated 20 hours with 4 μM PGD2 and glucose transport in the absence and presence of insulin was measured."}, "RGS2 mRNA": {"system": "RGS2 mRNA", "test": "standard mouse micro-array expression in treated 3T3-L1 adipocytes", "assay_type": "cell-based", "from_the_text": "(§4) For RGS2 we observed down-regulation as follows; pioglitazone 0.29 fold p<0.00009, rosiglitazone 0.25 fold p<0.00003, troglitazone, 0.27 fold p<0.00085. […] As such these regulations are reflective of endogenous PPAR activation of endogenous genes."}, "[2]": {"system": "pyruvate dehydrogenase kinase 4 mRNA (PDHK4)", "test": "standard mouse micro-array expression in treated 3T3-L1 adipocytes", "assay_type": "cell-based", "from_the_text": "as §4"}},
  "data": [
    {"smiles": "CCCCC[C@H](O)/C=C/[C@@H]1[C@@H](C/C=C\\CCCC(=O)O)[C@@H](O)C[C@@H]1O", "note": "[9α,11β-PGF2α, 9α,11β-prostaglandin F2α]", "values": [
      {"measurement": "activation of the aP2 reporter gene", "setting": "[1]", "result": "without effect"},
      {"measurement": "RGS2 fold change", "setting": "RGS2", "result": 0.75, "unit": "fold change"},
      {"measurement": "PDHK4 fold change", "setting": "PDHK4", "result": 0.77, "unit": "fold change"},
      {"measurement": "effect on glucose transport", "setting": "mouse 3T3-L1 adipocytes", "result": "no effect on glucose transport"},
      {"measurement": "activation of PPAR alpha", "setting": "PPAR alpha", "result": "without effect"},
      {"measurement": "activation of PPAR gamma", "setting": "PPAR gamma", "result": "without effect"}
    ]},
    {"smiles": "CCCCC[C@H](O)/C=C/[C@H]1C(=O)C[C@H](O)[C@@H]1C/C=C\\CCCC(=O)O", "note": "[PGD2, prostaglandin D2]", "values": [
      {"measurement": "effect on insulin-stimulated glucose transport", "setting": "3T3-L1 adipocytes", "result": "enhances insulin-stimulated glucose transport"},
      {"measurement": "activation of the aP2 reporter gene", "setting": "[1]", "result": "Significant activation"},
      {"measurement": "RGS2 fold change", "setting": "RGS2", "result": 0.29, "unit": "fold change"},
      {"measurement": "PDHK4 fold change", "setting": "PDHK4", "result": 2.39, "unit": "fold change"},
      {"measurement": "effect on glucose transport", "setting": "mouse 3T3-L1 adipocytes", "result": "enhances glucose transport to similar levels as those observed with the PPAR ligand rosiglitazone"},
      {"measurement": "activation of PPAR alpha", "setting": "PPAR alpha", "result": "Significant activation"},
      {"measurement": "activation of PPAR gamma", "setting": "PPAR gamma", "result": "Significant activation"}
    ]},
    {"smiles": "CCc1ccc(CCOc2ccc(CC3SC(=O)NC3=O)cc2)nc1", "note": "(stereo not drawn) [pioglitazone]", "values": [
      {"measurement": "RGS2 mRNA down-regulation, fold", "setting": "RGS2 mRNA", "result": 0.29, "unit": "fold"},
      {"measurement": "PDHK4 mRNA up regulation, fold", "setting": "[2]", "result": 3.13, "unit": "fold"},
      {"measurement": "down regulation of RGS2, fold", "setting": "RGS2", "result": 0.47, "unit": "fold"},
      {"measurement": "up regulation of PDHK4, fold", "setting": "PDHK4", "result": 4.9, "unit": "fold"}
    ]},
    {"smiles": "CN(CCOc1ccc(CC2SC(=O)NC2=O)cc1)c1ccccn1", "note": "(stereo not drawn) [rosiglitazone]", "values": [
      {"measurement": "RGS2 mRNA down-regulation, fold", "setting": "RGS2 mRNA", "result": 0.25, "unit": "fold"},
      {"measurement": "PDHK4 mRNA up regulation, fold", "setting": "[2]", "result": 3.16, "unit": "fold"},
      {"measurement": "down regulation of RGS2, fold", "setting": "RGS2", "result": 0.41, "unit": "fold"},
      {"measurement": "RGS2 fold change", "setting": "RGS2", "result": 0.20, "unit": "fold change"},
      {"measurement": "up regulation of PDHK4, fold", "setting": "PDHK4", "result": 5.45, "unit": "fold"},
      {"measurement": "PDHK4 fold change", "setting": "PDHK4", "result": 3.73, "unit": "fold change"}
    ]},
    {"smiles": "Cc1c(C)c2c(c(C)c1O)CCC(C)(COc1ccc(CC3SC(=O)NC3=O)cc1)O2", "note": "(stereo not drawn) [troglitazone]", "values": [
      {"measurement": "RGS2 mRNA down-regulation, fold", "setting": "RGS2 mRNA", "result": 0.27, "unit": "fold"},
      {"measurement": "PDHK4 mRNA up regulation, fold", "setting": "[2]", "result": 3.2, "unit": "fold"},
      {"measurement": "down regulation of RGS2, fold", "setting": "RGS2", "result": 0.55, "unit": "fold"},
      {"measurement": "up regulation of PDHK4, fold", "setting": "PDHK4", "result": 5.5, "unit": "fold"}
    ]}
  ]
}
